{"source": "patent US10383948B2", "about": "“Anti-cMet antibody drug conjugates and methods for their use” (AbbVie Inc., priority 2016, dated 2019)", "assay_in_all_cases": "Patient-derived xenograft, tumor growth delay", "assay_type_in_all_cases": "in vivo, NSG mice", "key": {"[1]": {"system": "CTG-0406 colorectal PDX", "conditions": "PDX CTG-0406 (Colorectal); every seven days, six doses; median time to 1 cm^3 vs control", "procedure": "(§1) Tumor fragments of 3 to 5 mm^3 at passage 3 (P3) were implanted subcutaneously in the right rear flank of NSG mice (The Jackson Laboratory) with a trochar. ABBV-399 and ABT-700 PBD were administered every seven days for a total of six doses. […] For all groups, tumor volumes were plotted only for the duration that allowed the full set of animal to remain on study. If animals had to be taken off study, the remaining animals were monitored for tumor growth until they reached defined end-points."}, "[2]": {"system": "CTG-0164 NSCL PDX", "conditions": "PDX CTG-0164 (NSCL); every seven days, six doses; median time to 1 cm^3 vs control", "procedure": "as §1"}, "[3]": {"system": "CTG-0084 colorectal PDX", "conditions": "PDX CTG-0084 (Colorectal); every seven days, six doses; median time to 1 cm^3 vs control", "procedure": "as §1"}, "[4]": {"system": "CTG-0363 NSCL PDX", "conditions": "PDX CTG-0363 (NSCL); every seven days, six doses; median time to 1 cm^3 vs control", "procedure": "as §1"}, "[5]": {"system": "CTG-0358 colorectal PDX", "conditions": "PDX CTG-0358 (Colorectal); every seven days, six doses; median time to 1 cm^3 vs control", "procedure": "as §1"}, "[6]": {"system": "CTG-0176 NSCL PDX", "conditions": "PDX CTG-0176 (NSCL); every seven days, six doses; median time to 1 cm^3 vs control", "procedure": "as §1"}, "[7]": {"system": "CTG-0117 colorectal PDX", "conditions": "PDX CTG-0117 (Colorectal); every seven days, six doses; median time to 1 cm^3 vs control", "procedure": "as §1"}, "[8]": {"system": "CTG-0382 colorectal PDX", "conditions": "PDX CTG-0382 (Colorectal); every seven days, six doses; median time to 1 cm^3 vs control", "procedure": "as §1"}, "[9]": {"system": "CTG-0652 colorectal PDX", "conditions": "PDX CTG-0652 (Colorectal); every seven days, six doses; median time to 1 cm^3 vs control", "procedure": "as §1"}, "[10]": {"system": "CTG-0419 colorectal PDX", "conditions": "PDX CTG-0419 (Colorectal); every seven days, six doses; median time to 1 cm^3 vs control", "procedure": "as §1"}, "[11]": {"system": "CTG-0387 colorectal PDX", "conditions": "PDX CTG-0387 (Colorectal); every seven days, six doses; median time to 1 cm^3 vs control", "procedure": "as §1"}, "[12]": {"system": "CTG-0440 colorectal PDX", "conditions": "PDX CTG-0440 (Colorectal); every seven days, six doses; median time to 1 cm^3 vs control", "procedure": "as §1"}, "[13]": {"system": "CTG-0796 colorectal PDX", "conditions": "PDX CTG-0796 (Colorectal); every seven days, six doses; median time to 1 cm^3 vs control", "procedure": "as §1"}, "[14]": {"system": "CTG-0162 NSCL PDX", "conditions": "PDX CTG-0162 (NSCL); every seven days, six doses; median time to 1 cm^3 vs control", "procedure": "as §1"}, "[15]": {"system": "CTG-0159 NSCL PDX", "conditions": "PDX CTG-0159 (NSCL); every seven days, six doses; median time to 1 cm^3 vs control", "procedure": "as §1"}, "[16]": {"system": "CTG-0058 colorectal PDX", "conditions": "PDX CTG-0058 (Colorectal); every seven days, six doses; median time to 1 cm^3 vs control", "procedure": "as §1"}, "[17]": {"system": "CTG-0165 NSCL PDX", "conditions": "PDX CTG-0165 (NSCL); every seven days, six doses; median time to 1 cm^3 vs control", "procedure": "as §1"}, "[18]": {"system": "CTG-0167 NSCL PDX", "conditions": "PDX CTG-0167 (NSCL); every seven days, six doses; median time to 1 cm^3 vs control", "procedure": "as §1"}, "[19]": {"system": "CTG-0115 colorectal PDX", "conditions": "PDX CTG-0115 (Colorectal); every seven days, six doses; median time to 1 cm^3 vs control", "procedure": "as §1"}, "[20]": {"system": "CTG-0178 NSCL PDX", "conditions": "PDX CTG-0178 (NSCL); every seven days, six doses; median time to 1 cm^3 vs control", "procedure": "as §1"}, "[21]": {"system": "CTG-0170 NSCL PDX", "conditions": "PDX CTG-0170 (NSCL); every seven days, six doses; median time to 1 cm^3 vs control", "procedure": "as §1"}, "[22]": {"system": "CTG-0062 colorectal PDX", "conditions": "PDX CTG-0062 (Colorectal); every seven days, six doses; median time to 1 cm^3 vs control", "procedure": "as §1"}}, "data": [{"substance": "ABBV-399: ADC comprised of the cMet targeting antibody ABT-700 conjugated to MMAE through a valine citrulline (vc) linker", "values": [{"measurement": "TGD (%) tumor growth delay", "setting": "[1]", "value": 0, "unit": "%"}, {"measurement": "TGD (%) tumor growth delay", "setting": "[2]", "value": 25, "unit": "%"}, {"measurement": "TGD (%) tumor growth delay", "setting": "[3]", "value": 0, "unit": "%"}, {"measurement": "TGD (%) tumor growth delay", "setting": "[4]", "value": 0, "unit": "%"}, {"measurement": "TGD (%) tumor growth delay", "setting": "[5]", "value": 94, "unit": "%"}, {"measurement": "TGD (%) tumor growth delay", "setting": "[6]", "value": 71, "unit": "%"}, {"measurement": "TGD (%) tumor growth delay", "setting": "[7]", "value": 0, "unit": "%"}, {"measurement": "TGD (%) tumor growth delay", "setting": "[8]", "value": 126, "unit": "%"}, {"measurement": "TGD (%) tumor growth delay", "setting": "[9]", "value": 350, "unit": "%"}, {"measurement": "TGD (%) tumor growth delay", "setting": "[10]", "value": 54, "unit": "%"}, {"measurement": "TGD (%) tumor growth delay", "setting": "[11]", "value": 0, "unit": "%"}, {"measurement": "TGD (%) tumor growth delay", "setting": "[12]", "value": 12, "unit": "%"}, {"measurement": "TGD (%) tumor growth delay", "setting": "[13]", "value": 78, "unit": "%"}, {"measurement": "TGD (%) tumor growth delay", "setting": "[14]", "value": 88, "unit": "%"}, {"measurement": "TGD (%) tumor growth delay", "setting": "[15]", "value": 288, "unit": "%"}, {"measurement": "TGD (%) tumor growth delay", "setting": "[16]", "value": 71, "unit": "%"}, {"measurement": "TGD (%) tumor growth delay", "setting": "[17]", "value": 170, "unit": "%"}, {"measurement": "TGD (%) tumor growth delay", "setting": "[18]", "value": 0, "unit": "%"}, {"measurement": "TGD (%) tumor growth delay", "setting": "[19]", "value": 114, "unit": "%"}, {"measurement": "TGD (%) tumor growth delay", "setting": "[20]", "value": 0, "unit": "%"}, {"measurement": "TGD (%) tumor growth delay", "setting": "[21]", "value": 336, "unit": "%"}, {"measurement": "TGD (%) tumor growth delay", "setting": "[22]", "value": 0, "unit": "%"}]}]}
